PubChem BioAssay (NCI)
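The compound was tested at five concentrations on cells cultured in 96-well plates, with a 48-hour exposure period. The concentration for 50% growth inhibition is given as GI50. TGI: total growth inhibition.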

Tests used:
Assay in all cases: NCI-60 cell line screen, 48 h
DU-145 prostate = tested on: DU-145 prostate
HCT-15 colon = tested on: HCT-15 colon
M14 melanoma = tested on: M14 melanoma
NCI-H226 lung = tested on: NCI-H226 lung
SF-295 CNS = tested on: SF-295 CNS
SK-MEL-5 melanoma = tested on: SK-MEL-5 melanoma
SNB-19 CNS = tested on: SNB-19 CNS
U251 CNS = tested on: U251 CNS

| SMILES | GI50 (DU-145 prostate) | TGI (DU-145 prostate) | GI50 (HCT-15 colon) | TGI (HCT-15 colon) | GI50 (M14 melanoma) | TGI (M14 melanoma) | GI50 (NCI-H226 lung) | TGI (NCI-H226 lung) | GI50 (SF-295 CNS) | TGI (SF-295 CNS) | GI50 (SK-MEL-5 melanoma) | TGI (SK-MEL-5 melanoma) | GI50 (SNB-19 CNS) | TGI (SNB-19 CNS) | GI50 (U251 CNS) | TGI (U251 CNS) |
| --- | --- | --- | --- | --- | --- | --- | --- | --- | --- | --- | --- | --- | --- | --- | --- | --- |
| NS(=O)(=O)c1cccc(N=Cc2c(O)[nH]c3ccccc23)c1 | > 25 µM | > 25 µM | > 25 µM | > 25 µM | > 25 µM | > 25 µM | > 25 µM | > 25 µM | > 25 µM | > 25 µM | > 25 µM | > 25 µM | > 25 µM | > 25 µM | > 25 µM | > 25 µM |
| c1cn2cc(-c3ccc4cn[nH]c4c3)nc(Nc3ccc(N4CCOCC4)cc3)c2n1 | 11.4 µM | 23.5 µM | 11.7 µM | 41.1 µM | 15.1 µM | 62.3 µM | 4.82 µM | 24.6 µM | 10.6 µM | 29.5 µM | 15.5 µM | 40.1 µM | 11.2 µM | 30.8 µM | 10 µM | 21.6 µM |
| COc1cccc(/C=C/c2cnc3ccccc3n2)c1OC | – | > 100 µM | – | 92.7 µM | – | > 100 µM | – | > 100 µM | – | > 100 µM | – | 58.3 µM | – | – | – | > 100 µM |
| CCN1c2ccccc2C(Cl)(c2ccc(N(C)C)cc2)c2ccccc21 | 5.5 µM | 17.1 µM | 11.9 µM | 49.4 µM | 5.97 µM | 20.2 µM | 14.6 µM | 34.5 µM | 21.7 µM | 73.8 µM | 3.76 µM | 15 µM | 5.44 µM | 19.1 µM | 3.69 µM | 17.4 µM |
| CCOC(=O)/C=C/C(C(=O)/C=C/c1ccc(O)c(OC)c1)=C(O)\C=C\c1ccc(O)c(OC)c1 | 4.43 µM | 18.7 µM | 2.27 µM | 6.99 µM | 2.2 µM | 5.15 µM | 1.67 µM | 5.1 µM | 14.6 µM | 47 µM | 2.22 µM | 6 µM | 5.14 µM | 27.2 µM | 0.613 µM | 12.5 µM |
| Cc1cc(Cc2cc(C)cc(C(C)(C)C)c2O)c(O)c(C(C)(C)C)c1 | 4.9 µM | 16.6 µM | 4.29 µM | 14.5 µM | 11.1 µM | 23 µM | 14.2 µM | 30 µM | 2.54 µM | 6.23 µM | 10.6 µM | 22.4 µM | 13.1 µM | 25.8 µM | 5.74 µM | 17.5 µM |
| c1ccc(-n2nnnc2-c2cccc3ccccc23)cc1 | 0.92 µM | 6.86 µM | 0.348 µM | > 100 µM | 0.365 µM | 8.81 µM | 15.5 µM | > 100 µM | 0.395 µM | 19.9 µM | 0.462 µM | 20.2 µM | 0.859 µM | > 100 µM | 0.536 µM | > 48.1 µM |
| CSc1ccc2c3c(n(C[C@H](O)CO)c(=O)c2c1)-c1ccccc1C3=O | 2.5 µM | > 100 µM | – | – | 4.09 µM | 58.3 µM | 1.86 µM | 5.31 µM | 2.82 µM | 12 µM | 1.75 µM | 3.76 µM | – | – | 1.19 µM | 7.49 µM |
| N#CC1=C(N)NC(=O)NC12Nc1ccccc1S2 (stereo not drawn) | 12.5 µM | 35.3 µM | 26.7 µM | 87 µM | 19.7 µM | 42.5 µM | 14.4 µM | 36.9 µM | 26.4 µM | > 65.7 µM | 17.5 µM | 33.2 µM | 44.5 µM | > 100 µM | 21.4 µM | > 55 µM |
| NC1=NC(c2ccc(Cl)cc2)C2=C(N1)/C(=C/c1ccc(Cl)cc1)CCC2 (stereo not drawn) | 7.91 µM | 29.6 µM | 9.13 µM | 26.9 µM | 2.77 µM | 11.6 µM | 4.25 µM | 11.8 µM | 5.71 µM | 25.8 µM | 5.51 µM | 12.9 µM | 19.8 µM | 99.3 µM | 3.38 µM | 12.2 µM |
| COc1ccc(-n2c3c(c4c(CN5CCOCC5)c(O)ccc42)CCc2ccccc2C3=O)cc1 | 67.9 µM | > 100 µM | > 100 µM | > 100 µM | > 100 µM | > 100 µM | 54.5 µM | > 100 µM | > 100 µM | > 100 µM | 63.1 µM | > 100 µM | > 100 µM | > 100 µM | 85.7 µM | > 100 µM |
| Cc1ccc2c(O)c(O)cc(NC(C)CCCN)c2n1 (stereo not drawn) | 10.5 µM | 31.4 µM | > 79.1 µM | > 100 µM | 33.6 µM | > 88.1 µM | 44.9 µM | > 100 µM | > 48 µM | > 74.2 µM | 9.38 µM | 25.3 µM | – | – | 3.67 µM | 14.8 µM |
| C=C1C(=O)O[C@H]2[C@H]1CC/C(COC(=O)NCCc1c[nH]c3ccc(OC)cc13)=C\CC[C@@]1(C)O[C@@H]21 | 1.61 µM | 4.43 µM | 1.14 µM | 2.45 µM | 1.62 µM | 3.51 µM | 1.88 µM | 3.61 µM | 10.3 µM | 22.2 µM | 3.13 µM | 10.6 µM | 10 µM | 21.9 µM | 4.3 µM | 15.9 µM |
| CO[C@@H]1CC(=O)C2(CC(=O)O[C@@H]2/C=C(\C)CCC=C(C)C)C[C@@H]1O (stereo partly drawn) | 0.577 µM | 1.55 µM | 0.56 µM | 1.55 µM | 0.709 µM | 1.55 µM | 0.755 µM | 2.05 µM | 1.43 µM | > 11.7 µM | 0.913 µM | 2.13 µM | 1.23 µM | 4.11 µM | 0.672 µM | 1.4 µM |
| COc1ccc(/C=C/C(=O)Oc2cc(O)cc(O)c2)cc1 | – | > 100 µM | – | 65.9 µM | – | > 100 µM | – | > 100 µM | – | 52.4 µM | – | > 100 µM | – | > 100 µM | – | > 100 µM |
| CCCCCCCCCCCCSC(=N)N | 8.98 µM | 23 µM | 2.96 µM | 11.5 µM | 5.16 µM | 17.2 µM | 18.5 µM | 44.5 µM | 2.35 µM | 5.55 µM | 12.6 µM | 28.2 µM | 15.7 µM | 45.7 µM | 2.64 µM | 8.74 µM |
| C=CCC1(O)c2cccc(NCCO)c2C(=O)c2c(NCCO)cccc21 | > 100 µM | > 100 µM | > 100 µM | > 100 µM | > 100 µM | > 100 µM | > 100 µM | > 100 µM | > 100 µM | > 100 µM | > 100 µM | > 100 µM | > 100 µM | > 100 µM | > 100 µM | > 100 µM |
| COc1ccc(/C=C\c2cc(OC)c(OC)c(OC)c2)cc1OC(=O)CCC(=O)O | – | – | – | > 100 µM | – | – | – | < 0.0001 µM | – | 67.7 µM | < 0.0001 µM | – | – | > 100 µM | – | – |
| Cc1cc(=O)oc2cc(OCc3c(F)cccc3Cl)ccc12 | – | > 100 µM | – | – | – | > 100 µM | – | > 100 µM | – | 52.9 µM | – | > 100 µM | – | > 100 µM | – | 30.1 µM |
| Cc1ccc(-c2cc(C3=CC(=O)C=CC3=O)n(-c3ccc(S(N)(=O)=O)cc3)n2)cc1 | – | – | 58.2 µM | > 100 µM | 31.8 µM | 80.9 µM | 54 µM | > 100 µM | > 100 µM | > 100 µM | 83.1 µM | > 100 µM | 63.7 µM | > 100 µM | 42.4 µM | > 100 µM |
| COc1ccc2nc3cc(Cl)ccc3c(NCCCNCCC(C)O)c2c1 (stereo not drawn) | 0.302 µM | 1.24 µM | 0.735 µM | 3.6 µM | 0.59 µM | 2.02 µM | 0.943 µM | 3.11 µM | 0.276 µM | 1.63 µM | – | – | 0.423 µM | 2.69 µM | 0.495 µM | 2.34 µM |
| COc1cc(-c2nc3sc4c(c3c(=O)[nH]2)CCCCCC4)cc(OC)c1OC | 1.78 µM | > 33.2 µM | 0.649 µM | > 33.2 µM | 0.831 µM | > 33.2 µM | 3.6 µM | > 33.2 µM | 0.692 µM | 6.53 µM | 0.853 µM | 2.96 µM | 1.56 µM | > 33.2 µM | – | – |
| O=C(Cc1cccc(OC(F)(F)F)c1)Nc1ccc(CCCCc2nnc(NC(=O)Cc3ccccn3)s2)nn1 | 25.8 µM | > 100 µM | > 100 µM | > 100 µM | 36.3 µM | > 100 µM | 15.1 µM | 54.1 µM | 11.5 µM | 31.4 µM | 16.1 µM | > 100 µM | 29.4 µM | > 100 µM | – | – |
| O=c1cc(-c2ccccc2)[nH]n1-c1nc2ccccc2[nH]1 | 9.97 µM | > 100 µM | 3.44 µM | > 100 µM | 2.71 µM | > 100 µM | 9.49 µM | > 100 µM | 2.92 µM | > 100 µM | 5.18 µM | 23.4 µM | 4.89 µM | > 100 µM | – | – |
| COc1ccc(-c2ccc(-c3ccc(-c4ccc(C(=N)N)cc4)s3)s2)cc1OC | 0.478 µM | 2.23 µM | – | – | 3.16 µM | 11.3 µM | 18.5 µM | 58.4 µM | 21.2 µM | 45.5 µM | 14.7 µM | 60.2 µM | 3.01 µM | 16.6 µM | – | – |
